According to patent publication US20150118304A1, “COMPOSITIONS COMPRISING SULFORAPHANE OR A SULFORAPHANE PRECURSOR AND MAGNESIUM” (Nutramax Laboratories, Inc., priority 2012, published 2015):
Read-outs that look alike come from different tables or passages of the source.

Key:
[1] = test system: broccoli sprout-derived myrosinase; experiment: Hydrolysis of glucoraphanin (broccoli seed extract) by myrosinase as a function of ascorbic acid concentration; type: biochemical; conditions: 38° C.; for Slope (rate of glucoraphanin consumption): linear regression 0-60 min
Method: About 250 mg of broccoli seed extract containing about 12% (w/w) glucoraphanin were subjected to hydrolysis by a fixed concentration of broccoli sprout-derived myrosinase in the presence of variable concentration of ascorbic acid, ranging from 0 to 600 μmoles/Liter. The reaction mixtures were thermostated at 38° C.; aliquots were withdrawn every 15 minutes for 60 minutes, and concentration of glucoraphanin determined chromatographically. The rate of glucoraphanin consumption was interpreted as the rate its conversion to sulforaphane. Graphical representation of glucoraphanin content reduction as a function of increasing ascorbic acid concentration results in a series of linear plots; the slopes of the linear regression lines reflect the rate of glucoraphanin consumption, in μmoles/minute. It is apparent that in the presence of 600 μmoles/Liter concentration of ascorbic acid, the reaction rate increased 13-fold relative to that which proceeded in the absence of modulatory effects of ascorbic acid.

myrosinase [2] = experiment: Equimolar conversion of glucoraphanin to sulforaphane by myrosinase, with and without ascorbic acid; type: biochemical; conditions: Part 2; broccoli seed extract fixed at 250 mg
Method: A two-part experiment was conducted to further elucidate the role of ascorbic acid in modulating myrosinase activity. […] A control sample contained no ascorbic acid, and the enzymatic conversion proceeded unassisted by a co-factor. PART 1. […] PART 2. While keeping the amount of broccoli seed extract fixed at 250 mg, the concentration of ascorbic acid was varied from 0.4 mmol/Liter to 3.8 mmol/Liter.

myrosinase [3] = experiment: Conversion of glucoraphanin to sulforaphane in Simulated Intestinal Fluid; type: biochemical, broccoli; conditions: 0.25 to 1.00 mmol/Liter ascorbic acid, 38° C., especially at the earlier stages, FIG. 4
Method: Simulated Intestinal Fluid (SIF) powder, a commercially supplied concentrate closely approximating the human intestinal content in terms of composition, pH and ionic strength, was used. The experiment utilized a USP Dissolution Apparatus 2 (paddles), where into six dissolution vessels 500 mL of Simulated Intestinal Fluid was dispensed, along with 150 mg of freeze-dried broccoli sprout powder as a source of myrosinase. […] Aliquots were withdrawn every 15 minutes, and assayed for sulforaphane.

[4] = test system: monocyte chemoattractant protein (MCP-1); conditions: 24 hours, RAW cells activated with 1 μg/mL LPS
Method: The following study was conducted to determine the effect of the combination of sulforaphane and magnesium sulfate (MgSO4) on expression of monocyte chemoattractant protein (MCP-1), which is a mediator of inflammation. MCP-1 is chemokine which attracts monocytes, macrophages, and lymphocytes to sites of inflammation. A reduction in MCP-1 is beneficial for the health of endothelial cells which line the cardiovascular system.
In the study, RAW cells were activated with 1 μg/mL lipopolysaccharide (LPS) for 30 minutes to stimulate the induction of MCP-1 gene expression. Following LPS treatment, the cells were treated with one of the following: (i) DMSO (vehicle control), (ii) 0.5 μM SFN, (iii) 2.5 mM MgSO4, or (iv) the combination of 0.5 μM SFN and 2.5 mM MgSO4. After treatment for 24 hours, the MCP-1 levels were assessed via quantitative RT-PCR.

mammary tumors = conditions: Sprague-Dawley rats; cited from earlier work
[5] = test system: NAD(P)H:quinine oxidoreductase (NQO1); conditions: oral administration; mammary epithelium; Sprague-Dawley rats; cited from earlier work
heme oxygenase-1 (HO-1) = conditions: oral administration; mammary epithelium; Sprague-Dawley rats; cited from earlier work

Question: Which results are given for `O=C1O[C@H]([C@@H](O)CO)C(O)=C1O` [Ascorbic Acid, ascorbic acid]?
Answer: increase of reaction rate (glucoraphanin consumption) ([1]; 600 μmoles/Liter ascorbic acid, relative to absence of ascorbic acid): 13 fold; Slope (rate of glucoraphanin consumption) ([1]; ascorbic acid 50 μM): -0.286 µmol/min; glucoraphanin (GR) content ([1]; ascorbic acid 50 μM, time 0 min): 93.36 µmol; glucoraphanin (GR) content ([1]; ascorbic acid 50 μM, time 15 min): 89.20 µmol; glucoraphanin (GR) content ([1]; ascorbic acid 50 μM, time 30 min): 84.24 µmol; glucoraphanin (GR) content ([1]; ascorbic acid 50 μM, time 45 min): 80.30 µmol; glucoraphanin (GR) content ([1]; ascorbic acid 50 μM, time 60 min): 76.36 µmol; Slope (rate of glucoraphanin consumption) ([1]; ascorbic acid 125 μM): -0.5622 µmol/min; glucoraphanin (GR) content ([1]; ascorbic acid 125 μM, time 0 min): 93.36 µmol; glucoraphanin (GR) content ([1]; ascorbic acid 125 μM, time 15 min): 84.52 µmol; glucoraphanin (GR) content ([1]; ascorbic acid 125 μM, time 30 min): 75.92 µmol; glucoraphanin (GR) content ([1]; ascorbic acid 125 μM, time 45 min): 68.09 µmol; glucoraphanin (GR) content ([1]; ascorbic acid 125 μM, time 60 min): 59.41 µmol; Slope (rate of glucoraphanin consumption) ([1]; ascorbic acid 250 μM Filtered): -0.4714 µmol/min; glucoraphanin (GR) content ([1]; ascorbic acid 250 μM Filtered, time 0 min): 93.36 µmol; glucoraphanin (GR) content ([1]; ascorbic acid 250 μM Filtered, time 15 min): 86.31 µmol; glucoraphanin (GR) content ([1]; ascorbic acid 250 μM Filtered, time 30 min): 79.44 µmol; glucoraphanin (GR) content ([1]; ascorbic acid 250 μM Filtered, time 45 min): 71.94 µmol; glucoraphanin (GR) content ([1]; ascorbic acid 250 μM Filtered, time 60 min): 65.18 µmol; Slope (rate of glucoraphanin consumption) ([1]; ascorbic acid 250 μM): -0.7901 µmol/min; glucoraphanin (GR) content ([1]; ascorbic acid 250 μM, time 0 min): 93.36 µmol; glucoraphanin (GR) content ([1]; ascorbic acid 250 μM, time 15 min): 80.95 µmol; glucoraphanin (GR) content ([1]; ascorbic acid 250 μM, time 30 min): 69.06 µmol; glucoraphanin (GR) content ([1]; ascorbic acid 250 μM, time 45 min): 57.63 µmol; glucoraphanin (GR) content ([1]; ascorbic acid 250 μM, time 60 min): 45.76 µmol; Slope (rate of glucoraphanin consumption) ([1]; ascorbic acid 400 μM): -1.007 µmol/min; glucoraphanin (GR) content ([1]; ascorbic acid 400 μM, time 0 min): 93.36 µmol; glucoraphanin (GR) content ([1]; ascorbic acid 400 μM, time 15 min): 78.32 µmol; glucoraphanin (GR) content ([1]; ascorbic acid 400 μM, time 30 min): 62.78 µmol; glucoraphanin (GR) content ([1]; ascorbic acid 400 μM, time 45 min): 47.67 µmol; glucoraphanin (GR) content ([1]; ascorbic acid 400 μM, time 60 min): 33.15 µmol; Slope (rate of glucoraphanin consumption) ([1]; ascorbic acid 600 μM): -1.2 µmol/min; glucoraphanin (GR) content ([1]; ascorbic acid 600 μM, time 0 min): 93.36 µmol; glucoraphanin (GR) content ([1]; ascorbic acid 600 μM, time 15 min): 75.02 µmol; glucoraphanin (GR) content ([1]; ascorbic acid 600 μM, time 30 min): 55.66 µmol; glucoraphanin (GR) content ([1]; ascorbic acid 600 μM, time 45 min): 37.50 µmol; glucoraphanin (GR) content ([1]; ascorbic acid 600 μM, time 60 min): 22.09 µmol; ascorbic acid concentration up to which myrosinase-promoted conversion increases apparently linearly, then levels off (myrosinase [2]): about 2 mmol/L; relation of sulforaphane yield to ascorbic acid concentration (myrosinase [3]): direct correlation between larger yield of sulforaphane and higher concentrations of ascorbic acid

Question: For `C[S+]([O-])CCCCN=C=S` (centres unmarked) [sulforaphane, 1-isothiocyanato-4-methylsulfinylbutane], which “decrease in MCP-1 levels” value ([4]; 0.5 μM SFN) is on record?
Answer: approximately 29%

Question: What about the “blocking the formation of mammary tumors” value (mammary tumors) of the same compound?
Answer: effective in blocking the formation of mammary tumors

Question: What about the “increase in NQO1 enzymatic activity” value [5] of the same compound?
Answer: 3 fold

Question: What about the “elevated immunostaining of HO-1” value (heme oxygenase-1 (HO-1)) of the same compound?
Answer: 4 fold

Question: For `O=S(=O)([O-])[O-].[Mg+2]` [magnesium sulfate], which “decrease in MCP-1 levels” value ([4]; 2.5 mM MgSO4) is on record?
Answer: approximately 16%
